The values that follow come from patent US20230127046A1, “G9a INHIBITOR” (RIKEN, priority 2019, published 2023).

SMILES strings stand for the structures. Where two headings read alike, the source gives them in different places. Some results are limits rather than exact numbers.

The target of the experiment is T1, recombinant human G9a protein (Homo sapiens, UniProt Q96KQ7).
T1 construct: purchased BPS Bioscience Inc. #51001
T1 sequence (Q96KQ7 785-1210 limits assumed): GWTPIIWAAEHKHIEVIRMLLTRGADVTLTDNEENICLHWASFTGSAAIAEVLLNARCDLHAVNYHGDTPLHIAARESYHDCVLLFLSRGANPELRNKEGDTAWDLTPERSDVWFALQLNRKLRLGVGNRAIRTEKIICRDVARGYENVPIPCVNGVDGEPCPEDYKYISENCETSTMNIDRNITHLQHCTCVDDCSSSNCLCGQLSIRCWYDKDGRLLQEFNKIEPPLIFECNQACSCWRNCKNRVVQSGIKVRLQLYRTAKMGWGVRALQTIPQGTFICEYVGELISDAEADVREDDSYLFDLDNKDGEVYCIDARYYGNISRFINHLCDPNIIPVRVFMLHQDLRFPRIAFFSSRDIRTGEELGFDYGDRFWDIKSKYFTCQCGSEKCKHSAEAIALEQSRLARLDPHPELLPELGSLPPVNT
The experiment is described as follows: G9a inhibitory activity test (ALPHA). The format is biochemical. As to the method: The G9a inhibitory activity of each compound was evaluated by measuring the enzymatic activity of G9a by amplified luminescence proximity homogeneous assay (ALPHA). First, 7.5 μL of a dilution of recombinant human G9a protein (BPS Bioscience Inc., #51001) diluted to 0.05 to 0.1 nM with a Tris buffer solution (50 mM Tris-HCl [pH 9.0], 50 mM NaCl, 0.01% Tween-20, 1 mM DTT), and 0.5 μL of the test compound were added to each well of a 384-well microplate (AlphaPlate-384 Shallow Well, PerkinElmer, Inc., #6008359), mixed by vortex, and incubated at room temperature for 10 minutes. 500 nM biotinylated histone H3 peptide (1-21) (AnaSpec Inc., #61702) and 150 μM SAM (Sigma-Aldrich Co. LLC, #A7007) were mixed at 1:1 in advance, and 2 μL of the mixture was added to each well, mixed by vortex, and then incubated at room temperature for 1 hour. AlphaLISA anti-H3K9me2 acceptor beads (PerkinElmer, Inc., #AL117C) and AlphaScreen streptavidin donor beads (PerkinElmer, Inc., #6760002B) were each diluted with an epigenetic buffer (PerkinElmer, Inc., AlphaLISA Epigenetics Buffer Kit #AL008C) to a final concentration of […] after addition. These dilutions were added to the reaction solution in the dark and incubated at room temperature for 1 hour in the dark. Then, measurement was performed using the EnSpire Alpha plate reader (PerkinElmer, Inc., Waltham, Mass., USA). The G9a inhibitory activity of the test compound was calculated as a compound concentration necessary for suppressing G9a enzymatic activity by 50% (IC50 value), by determining the percent inhibition of the compound when the value of a control without the addition of the compound was defined as 0% and the value of a control without the addition of the enzyme was defined as 100%.

The mark [1] stands for this setting: read-out: Inhibitory activity (G9a IC50).
Setting [2] is: biotinylated histone H3 peptide (1-21), SAM, read-out: Inhibitory activity (G9a IC50 value).

As usually defined, the IC50 is the point on the concentration scale where inhibition reaches its midpoint. Regarding `CCCCC(NC(=O)c1sc(-c2ccccc2)nc1C(F)(F)F)C(=O)Nc1ccc(OC2CCN(C)CC2)nc1` (centres unmarked) [Example 11-3], the IC50 under setting [1] was in the range of 50 to 200 nM. For `CCOc1ccc(NC(=O)C(CCC2CC2)NC(=O)c2[nH]c3c(c2C)C(=O)CC(C)(C)C3)cn1` (centres unmarked) [Example 1-58], the concentration for half-maximal inhibition (IC50) under setting [2] was not below 200 nM. With `Cc1ccc(NC(=O)C(CCC2CC2)NC(=O)c2[nH]c3c(c2C(C)C)C(=O)CC(C)(C)C3)cn1` (centres unmarked) [Example 6-5], under setting [1], the IC50 fell in the range of 50 to 200 nM. As to `CCCCC(NC(=O)c1[nH]c2c(c1C)C(=O)CC(C)(C)C2)C(=O)NCc1ccccc1Cl` (centres unmarked) [Example 1-41], under setting [2], the IC50 is not below 200 nM.

On to `Cc1c(C(=O)NC(C(=O)Nc2ccc(OC3CCN(C)CC3)nc2)c2ccc(Cl)cc2)[nH]c2c1C(=O)CC(C)(C)C2` (centres unmarked) [Example 6-29], for which, under setting [1], the IC50 is not below 200 nM. The same measure, in the same setting: under `COc1ccc(NC(=O)C(CCC2CC2)NC(=O)c2ccc(NC3CCN(C)CC3)cc2)cn1` (centres unmarked) [Example 6-59] stands not below 200 nM; under `Cc1c(C(=O)NC(CCC2CC2)c2nc3c(CN4CCCC4)cccc3n2C)[nH]c2c1C(=O)CC(C)(C)C2` (centres unmarked) [Example 31-5], 50 to 200 nM. `CCCCC(NC(=O)c1ccc(Nc2ccncc2)cc1)C(=O)Nc1ccc(OC2CCN(C)CC2)nc1` (centres unmarked) [Example 11-5]: under setting [1], the concentration for half-maximal inhibition (IC50) is less than 50 nM.

On to `CCCCC(NC(=O)c1[nH]c2c(c1C)C(=O)CC(C)(C)C2)C(=O)Nc1cccc2[nH]ccc12` (centres unmarked) [Example 1-90], for which, under setting [2], the IC50 is not below 200 nM. For `CCCCC(NC(=O)c1[nH]c2c(c1C)C(=O)CC(C)(C)C2)C(=O)NCc1ccc(CNC(C)(C)C)cc1` (centres unmarked) [Example 18-4], the half-inhibitory concentration (IC50) under setting [1] was less than 50 nM.

As for `CCCCC(NC(=O)c1[nH]c2c(c1C)C(=O)CC(C)(C)C2)C(=O)NCc1ccc(CN(C)C)cc1` (centres unmarked) [Example 1-51], the IC50 under setting [2] is less than 50 nM. On to `CCCCC(NC(=O)c1[nH]c2c(c1C)C(=O)CC(C)(C)C2)C(=O)NCc1cccc2ccccc12` (centres unmarked) [Example 1-49], for which the IC50 under setting [2] is not below 200 nM. For `COc1ccc(NC(=O)C(CCC2CC2)NC(=O)c2ccc(Nc3ccncc3)cc2Cl)cn1` (centres unmarked) [Example 6-77], the half-maximal inhibitory concentration (IC50) under setting [1] was less than 50 nM.

On to `CCCC[C@H](NC(=O)c1[nH]c2c(c1C)C(=O)CC1(CCCCC1)C2)C(=O)N[C@@H](C)c1ccccc1` [Example 6-43], for which the IC50 under setting [1] is not below 200 nM.

For the molecule `Cc1ccc2nc(C(CCC3CC3)NC(=O)c3[nH]c4c(c3C)C(=O)CC(C)(C)C4)n(C)c2c1` (centres unmarked) [Example 30-4], the concentration for half-maximal inhibition (IC50) under setting [1] is not below 200 nM.

As to `CCCC[C@H](NC(=O)c1[nH]c2c(c1C)C(=O)CC(C)(C)C2)C(=O)NCc1ccc(N2CCN(CCO)CC2)cc1` [Example 23, (S)-N-(1-((4-(4-(2-hydroxyethyl)piperazin-1-yl)benzyl)amino)-1-oxohexan-2-yl)-3,6,6-trimethyl-4-oxo-4,5,6,7-tetrahydro-1H-indole-2-carboxamide], the IC50 under setting [1] is not below 200 nM. Same read-out and setting: for `CCCCC(NC(=O)c1[nH]c2c(c1C)C(=O)CC(C)(C)C2)C(=O)NCc1ccc(N2CCNCC2)cc1` (centres unmarked) [Example 26-7] the value was less than 50 nM. In the case of `CCCCC(NC(=O)c1[nH]c2c(c1C)C(=O)CC(C)(C)C2)C(=O)Nc1ccc(OC2CCN(C)CC2)cc1OC` (centres unmarked) [Example 1-8], the half-inhibitory concentration (IC50) under setting [2] is less than 50 nM. With `CCCCC(NC(=O)c1[nH]c2c(c1C)C(=O)CC(C)(C)C2)C(=O)Nc1ccccc1COC` (centres unmarked) [Example 1-22], the half-maximal inhibitory concentration (IC50) under setting [2] is not below 200 nM. For the molecule `CCCCC(NC(=O)c1[nH]c2c(c1C)C(=O)CC(C)(C)C2)C(=O)NCc1ccc(CN)cc1` (centres unmarked) [Example 24-2], the IC50 under setting [1] was less than 50 nM. With `COc1ccc(NC(=O)C(CCC2CC2)NC(=O)c2ccc(-c3ccncc3)cc2C)cn1` (centres unmarked) [Example 6-50], under setting [1], the IC50 was not below 200 nM. Same read-out and setting: for `Cc1c(C(=O)NC(CCC2CC2)C(=O)NCc2cccc(CN(C)C)c2)[nH]c2c1C(=O)CC(C)(C)C2` (centres unmarked) [Example 1-148] the value was less than 50 nM; for `CCCCC(NC(=O)c1[nH]c2c(c1C)C(=O)CC(C)(C)C2)C(=O)NCc1ccc(CNC)cc1` (centres unmarked) [Example 18-6], less than 50 nM. Take `CCCCC(NC(=O)c1[nH]c2c(c1C)C(=O)CC(C)(C)C2)C(=O)Nc1ccc(N2CCC3(CNC3)C2)nc1` (centres unmarked) [Example 27]: the concentration for half-maximal inhibition (IC50) under setting [1] is 50 to 200 nM. Still for that read-out and setting: for `CCCC[C@H](NC(=O)c1[nH]c2c(c1C)C(=O)CC(C)(C)C2)c1nc2ccc(OCCN3CCCC3)cc2[nH]1` [Example 37-3] the value was not below 200 nM.

Consider `CCCCC(NC(=O)c1cc2cc(OCC)ccc2[nH]1)C(=O)Nc1ccc(OC2CCN(C)CC2)nc1` (centres unmarked) [Example 6-94], for which, under setting [1], the IC50 was not below 200 nM. In the case of `COc1ccc(NC(=O)C(CCC2CC2)NC(=O)c2ccc(-n3ccc4cnccc43)cc2C)cn1` (centres unmarked) [Example 6-70], under setting [1], the 50% inhibitory concentration (IC50) was less than 50 nM. Still for that read-out and setting: under `CCCCC(NC(=O)c1cc2cc(OC)c(OC)cc2[nH]1)C(=O)Nc1ccc(OC2CCN(C)CC2)nc1` (centres unmarked) [Example 6-97] stands not below 200 nM; under `CCCCC(NC(=O)c1[nH]c2c(c1C)C(=O)CC(C)(C)C2)C(=O)Nc1ccc(OC2CNC2)nc1` (centres unmarked) [Example 26-1], 50 to 200 nM. `Cc1c(C(=O)NC(CCC2CC2)C(=O)Nc2ccc(Cl)nc2)[nH]c2c1C(=O)CC(C)(C)C2` (centres unmarked) [Example 6-7]: under setting [1], the IC50 is not below 200 nM. In the case of `CCCC[C@H](NC(=O)c1[nH]c2c(c1C)C(=O)CC(C)(C)C2)C(=O)Nc1cccc(N2CCN(C)CC2)c1` [Example 6-48], the IC50 under setting [1] is not below 200 nM. On to `COc1ccc(NC(=O)C(CCC2CC2)NC(=O)c2ccc(CCCN(C)C)cc2)cn1` (centres unmarked) [Example 6-74], for which the IC50 under setting [1] fell in the range of 50 to 200 nM. The same measure, in the same setting: under `CCCCC(NC(=O)c1[nH]c2c(c1C)C(=O)CC(C)(C)C2)C(=O)NCc1ccc(CN2CCCCC2)cc1` (centres unmarked) [Example 18-9] stands less than 50 nM; under `CCCCC(NC(=O)c1[nH]c2c(c1C)C(=O)CC(C)(C)C2)C(=O)Nc1ccc(C)cc1CC` (centres unmarked) [Example 14-2], less than 50 nM; under `CCCC[C@H](NC(=O)c1[nH]c2c(c1C)C(=O)CC(C)(C)C2)c1nc2ccc(OCCN3CCCCC3)cc2[nH]1` [Example 37-1, (S)-3,6,6-trimethyl-4-oxo-N-(1-(6-(2-(piperidin-1-yl)ethoxy)-1H-benzo[d]imidazol-2-yl)pentyl)-4,5,6,7-tetrahydro-1H-indole-2-carboxamide], not below 200 nM. Still for that read-out and setting: for `Cc1c(C(=O)NC(CCC2CC2)C(=O)N2CCc3c(CN4CCOCC4)cccc32)[nH]c2c1C(=O)CC(C)(C)C2` (centres unmarked) [Example 1-144] the value was not below 200 nM. The same measure, in the same setting: for `CCCC[C@H](NC(=O)c1[nH]c2c(c1C)C(=O)CC(C)(C)C2)C(=O)N[C@@H](CO)c1ccccc1` [Example 6-45] the value was 50 to 200 nM. As for `CCCCC(NC(=O)c1[nH]c2c(c1C)C(=O)CC(C)(C)C2)C(=O)Nc1ccccc1CN1CCN(C)CC1` (centres unmarked) [Example 1-102], under setting [2], the IC50 was not below 200 nM. The same measure, in the same setting: for `CCCCC(NC(=O)c1[nH]c2c(c1C)C(=O)CC(C)(C)C2)C(=O)Nc1ccc(OC2CCN(C)CC2)cc1` (centres unmarked) [Example 1-32] the value was less than 50 nM. Regarding `CCCCC(NC(=O)c1[nH]c2c(c1C)C(=O)CC(C)(C)C2)C(=O)Nc1cccc(CN2CCCC2)c1` (centres unmarked) [Example 1-113], under setting [1], the IC50 is less than 50 nM. Still for that read-out and setting: for `CCCC[C@H](NC(=O)c1[nH]c2c(c1C)C(=O)CC(C)(C)C2)c1nc2ccc(OC3CCN(C)CC3)cc2[nH]1` [Example 34-4] the value was not below 200 nM. In the case of `Cc1c(C(=O)NC(CCC2CC2)C(=O)Nc2cccc(C#N)c2)[nH]c2c1C(=O)CC(C)(C)C2` (centres unmarked) [Example 1-62], under setting [2], the IC50 is 50 to 200 nM. For the molecule `CSc1ccccc1NC(=O)C(CCC1CC1)NC(=O)c1[nH]c2c(c1C)C(=O)CC(C)(C)C2` (centres unmarked) [Example 1-83], the half-inhibitory concentration (IC50) under setting [2] was less than 50 nM. On the same count and under the same terms, under `Cc1c(C(=O)NC(CCC2CC2)C(=O)Nc2ccc(OC3COC3)nc2)[nH]c2c1C(=O)CC(C)(C)C2` (centres unmarked) [Example 1-71] stands not below 200 nM.
